{"source": "patent US8003704B2", "about": "“Methods and compositions for the treatment of alcoholism and alcohol dependence” (priority 2000, dated 2011)", "type_in_all_cases": "biochemical", "key": {"[1]": {"tested_on": "AlDH of bacterial sources", "assay": "Screening of tryptophan metabolites for inhibition of bacterial AlDH activity in vitro", "details": "for % inhibition of AlDH activity: 100 μM concentration, in vitro", "experimental": "Tryptophan and its various metabolites were tested for possible inhibition of activity of AlDH of bacterial sources. The terms “inhibitor of AlDH activity” and the like mean that the activity of AlDH in vivo in the presence of the inhibitor is reduced. In practice, this may be predicted by reference to the inhibitory activity of the compound or composition in vitro.\nAn enzyme preparation was purchased from Sigma, (Poole, Dorset, UK) and was used for the screening of tryptophan and its metabolites. A number of preliminary experiments were performed to optimise the conditions of the assay, which was performed according to standard experimental conditions published in the literature and well known to those skilled in the art. All assays were performed in triplicate or quadruplicate determinations for both controls (no additions) and tryptophan metabolites.\nTryptophan and its metabolites were first tested at a 100 μM concentration. The tryptophan metabolites screened included the following: […]"}, "[2]": {"molecular_target": "T1, low Km AlDH from rat liver (Rattus norvegicus, UniProt P11884)", "T1 construct": "using a preparation from rat liver containing both Low Km and high Km AlDH; from tissue; host or cells: rat liver preparation", "T1 sequence (P11884 20-519)": "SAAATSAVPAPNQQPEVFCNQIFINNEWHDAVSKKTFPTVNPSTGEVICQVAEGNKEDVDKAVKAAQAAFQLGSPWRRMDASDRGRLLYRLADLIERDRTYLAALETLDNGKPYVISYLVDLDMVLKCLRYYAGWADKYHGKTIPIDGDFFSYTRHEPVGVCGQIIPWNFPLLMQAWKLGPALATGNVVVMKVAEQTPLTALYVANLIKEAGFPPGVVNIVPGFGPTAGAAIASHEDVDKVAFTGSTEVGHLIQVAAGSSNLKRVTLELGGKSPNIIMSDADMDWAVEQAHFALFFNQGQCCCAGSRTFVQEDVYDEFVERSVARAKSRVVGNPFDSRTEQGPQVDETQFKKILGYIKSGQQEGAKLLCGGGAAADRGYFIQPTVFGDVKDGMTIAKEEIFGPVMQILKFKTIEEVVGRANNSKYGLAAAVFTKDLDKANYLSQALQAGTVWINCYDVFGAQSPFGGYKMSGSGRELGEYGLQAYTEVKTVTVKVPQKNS", "assay": "Inhibition of mammalian mitochondrial (low Km) AlDH in rat liver preparation", "details": "Example 4, rat liver low Km AlDH, 5 μM acetaldehyde", "experimental": "Experiments were therefore performed using a preparation from rat liver in which both the low Km and the high Km enzymes can be measured simultaneously, but at different substrate (acetaldehyde) concentrations, namely, 5 μM for the low Km and 5 mM for the high Km, enzyme."}, "[3]": {"molecular_target": "T1, low Km AlDH from rat liver", "assay": "Inhibition of mammalian mitochondrial (low Km) AlDH in rat liver preparation", "details": "Example 3, preliminary results, 2 μM concentration"}}, "data": [{"compound": "Nc1c(O)cccc1C(=O)O", "note": "[3-hydroxyanthranilic acid]", "values": [{"measurement": "inhibition of bacterial AlDH activity", "setting": "[1]; 2 μM concentration", "value": 3, "unit": "%"}, {"measurement": "inhibition of bacterial AlDH activity", "setting": "[1]; 10 μM concentration", "value": 17, "unit": "%"}, {"measurement": "% inhibition of AlDH activity", "setting": "[1]", "value": 97, "unit": "%"}, {"measurement": "inhibition of activity of the low Km enzyme", "setting": "[2]; 2 μM concentration", "value": 46, "unit": "%"}, {"measurement": "inhibition of activity of the low Km enzyme", "setting": "[2]; 10 μM concentration", "value": 54, "unit": "%"}, {"measurement": "inhibition of activity of the low Km enzyme", "setting": "[2]; 100 μM concentration", "value": 76, "unit": "%"}, {"measurement": "inhibition of the mammalian low km enzyme", "setting": "[3]", "value": 46, "unit": "%"}]}, {"compound": "Nc1c(O)cccc1C(=O)CC(N)C(=O)O", "note": "(stereo not drawn) [3-hydroxykynurenine]", "values": [{"measurement": "inhibition of bacterial AlDH activity", "setting": "[1]; 2 μM concentration", "value": "+1%"}, {"measurement": "inhibition of bacterial AlDH activity", "setting": "[1]; 10 μM concentration", "value": 55, "unit": "%"}, {"measurement": "% inhibition of AlDH activity", "setting": "[1]", "value": 97, "unit": "%"}, {"measurement": "inhibition of activity of the low Km enzyme", "setting": "[2]; 2 μM concentration", "value": 55, "unit": "%"}, {"measurement": "inhibition of activity of the low Km enzyme", "setting": "[2]; 10 μM concentration", "value": 52, "unit": "%"}, {"measurement": "inhibition of activity of the low Km enzyme", "setting": "[2]; 100 μM concentration", "value": 69, "unit": "%"}, {"measurement": "inhibition of the mammalian low km enzyme", "setting": "[3]", "value": 65, "unit": "%"}]}, {"compound": "O=C(O)Cc1c[nH]c2ccc(O)cc12", "note": "[5-hydroxyindol-3-ylacetic acid]", "values": [{"measurement": "% inhibition of AlDH activity", "setting": "[1]", "value": 4, "unit": "%"}]}, {"compound": "NCCc1c[nH]c2ccc(O)cc12", "note": "[5-hydroxytryptamine]", "values": [{"measurement": "% inhibition of AlDH activity", "setting": "[1]", "value": 15, "unit": "%"}]}, {"compound": "OCCc1c[nH]c2ccc(O)cc12", "note": "[5-hydroxytryptophol]", "values": [{"measurement": "% inhibition of AlDH activity", "setting": "[1]", "value": 7, "unit": "%"}]}, {"compound": "N[C@@H](Cc1c[nH]c2ccc(O)cc12)C(=O)O", "note": "[5-hydroxytrytophan]", "values": [{"measurement": "% inhibition of AlDH activity", "setting": "[1]", "value": 23, "unit": "%"}]}, {"compound": "Nc1ccccc1C(=O)O", "note": "[anthranilic acid]", "values": [{"measurement": "% inhibition of AlDH activity", "setting": "[1]", "value": 9, "unit": "%"}]}, {"compound": "CCN(CC)C(=S)SSC(=S)N(CC)CC", "note": "[disulfiram, reference compound]", "values": [{"measurement": "inhibition of activity of the low Km enzyme", "setting": "[2]; 2 μM concentration", "value": "30-46%"}, {"measurement": "inhibition of activity of the low Km enzyme", "setting": "[2]; 10 μM concentration", "value": "38-43%"}, {"measurement": "inhibition of activity of the low Km enzyme", "setting": "[2]; 100 μM concentration", "value": "46-50%"}, {"measurement": "inhibition of the mammalian low km enzyme", "setting": "[3]", "value": "30-46%"}]}, {"compound": "O=CCc1c[nH]c2ccccc12", "note": "[indol-3-ylacetaldehyde]", "values": [{"measurement": "% inhibition of AlDH activity", "setting": "[1]", "value": 55, "unit": "%"}]}, {"compound": "O=C(O)Cc1c[nH]c2ccccc12", "note": "[indol-3-ylacetic acid]", "values": [{"measurement": "% inhibition of AlDH activity", "setting": "[1]", "value": 11, "unit": "%"}]}, {"compound": "O=C(O)C(=O)Cc1c[nH]c2ccccc12", "note": "[indol-3-ylpyruvic acid]", "values": [{"measurement": "inhibition of bacterial AlDH activity", "setting": "[1]; 2 μM concentration", "value": 24, "unit": "%"}, {"measurement": "inhibition of bacterial AlDH activity", "setting": "[1]; 10 μM concentration", "value": 29, "unit": "%"}, {"measurement": "% inhibition of AlDH activity", "setting": "[1]", "value": 94, "unit": "%"}, {"measurement": "inhibition of activity of the low Km enzyme", "setting": "[2]; 2 μM concentration", "value": 30, "unit": "%"}, {"measurement": "inhibition of activity of the low Km enzyme", "setting": "[2]; 10 μM concentration", "value": 38, "unit": "%"}, {"measurement": "inhibition of activity of the low Km enzyme", "setting": "[2]; 100 μM concentration", "value": 53, "unit": "%"}, {"measurement": "inhibition of the mammalian low km enzyme", "setting": "[3]", "value": 37, "unit": "%"}]}, {"compound": "O=C(O)c1cc(=O)c2ccccc2[nH]1", "note": "[kynurenic acid]", "values": [{"measurement": "inhibition of bacterial AlDH activity", "setting": "[1]; 2 μM concentration", "value": 5, "unit": "%"}, {"measurement": "inhibition of bacterial AlDH activity", "setting": "[1]; 10 μM concentration", "value": 30, "unit": "%"}, {"measurement": "% inhibition of AlDH activity", "setting": "[1]", "value": 90, "unit": "%"}, {"measurement": "inhibition of activity of the low Km enzyme", "setting": "[2]; 2 μM concentration", "value": 40, "unit": "%"}, {"measurement": "inhibition of activity of the low Km enzyme", "setting": "[2]; 10 μM concentration", "value": 43, "unit": "%"}, {"measurement": "inhibition of activity of the low Km enzyme", "setting": "[2]; 100 μM concentration", "value": 43, "unit": "%"}, {"measurement": "inhibition of the mammalian low km enzyme", "setting": "[3]", "value": 30, "unit": "%"}]}, {"compound": "Nc1ccccc1C(=O)CC(N)C(=O)O", "note": "(stereo not drawn) [kynurenine]", "values": [{"measurement": "% inhibition of AlDH activity", "setting": "[1]", "value": 24, "unit": "%"}]}, {"compound": "NC(=O)c1cccnc1", "note": "[nicotinamide]", "values": [{"measurement": "% inhibition of AlDH activity", "setting": "[1]", "value": 7, "unit": "%"}]}, {"compound": "c1ccc2c(c1)[nH]c1cnccc12", "note": "[norharman]", "values": [{"measurement": "% inhibition of AlDH activity", "setting": "[1]", "value": 23, "unit": "%"}]}, {"compound": "O=C(O)c1ccc2ccccc2n1", "note": "[quinaldic acid]", "values": [{"measurement": "% inhibition of AlDH activity", "setting": "[1]", "value": 7, "unit": "%"}]}, {"compound": "O=C(O)c1cccnc1C(=O)O", "note": "[quinolinic acid]", "values": [{"measurement": "% inhibition of AlDH activity", "setting": "[1]", "value": 13, "unit": "%"}]}, {"compound": "NCCc1c[nH]c2ccccc12", "note": "[tryptamine]", "values": [{"measurement": "% inhibition of AlDH activity", "setting": "[1]", "value": 0, "unit": "%"}]}, {"compound": "N[C@@H](Cc1c[nH]c2ccccc12)C(=O)O", "note": "[tryptophan]", "values": [{"measurement": "% inhibition of AlDH activity", "setting": "[1]", "value": 2, "unit": "%"}]}, {"compound": "O=C(O)c1cc(O)c2cccc(O)c2n1", "note": "[xanthurenic acid]", "values": [{"measurement": "% inhibition of AlDH activity", "setting": "[1]", "value": 56, "unit": "%"}]}, {"compound": "O=C(O)CCCC(=O)C(=O)O", "note": "[α-ketoadipic acid]", "values": [{"measurement": "% inhibition of AlDH activity", "setting": "[1]", "value": 1, "unit": "%"}]}]}
